The text below walks through data of patent US12668803B2, “Glypican-3-specific modified aptamer and use thereof” (APTAMER SCIENCES INC., priority 2019, dated 2026).

Where only a bound is given, the exact number is not on record here.

The subject of one data set is Huh 7 cells. In words: Cell binding analysis of Cy5-labeled aptamers (FACS). It counts as cell-based. The note with it: three vs five gemcitabines bound, method of Example 2-1, FIG. 19. How it is done: The 12-10 aptamer and 5 aptamer libraries prepared by truncating the 12-10 aptamer at various lengths [12-10 (40-mer), 12-12 (35-mer), 12-11 (29-mer), 12-13 (24-mer), 12-14 (23-mer), 12-15 (18-mer)] were subjected to cell binding analysis. Each aptamer sequence was labeled with Cy5 at the 5′ end thereof according to the method of Example 1-1. Huh 7 cells (ATCC, Rockville, MD, USA) were seeded at a density of 2×10^6/mL in a 100 mm^2 culture plate, and cultured using a DMEM medium (Gibco, Grand Island, NY, USA) containing 10% FBS (Gibco, Grand Island, NY, USA) and 1% antibiotics (penicillin/streptomycin) under conditions of 5% CO2 and 37° C. 5 μM of the aptamer stock was mixed with 5×SB18 buffer to prepare the aptamer at a concentration of 4 μM, and heated at 95° C. for 5 min, and then cooled at room temperature for 15 min or more. 4 μM of the aptamer was diluted with KRPH buffer (20 mM HEPES, 5 mM KH2PO4, 1 mM MgSO4, 1 mM CaCl2, 136 mM NaCl, 4.7 mM KCl, pH 7.4) at a concentration of 25 nM. The culture medium was removed from the cultured cells, and 4 mL of phosphate-buffered saline (PBS) was added thereto, followed by washing, and then 4 mL of PBS was removed. 4 mL of cold PBS or warm PBS was added, and cells were scraped using a scraper, and collected in tubes, followed by pipetting. The cells were divided and added to fluorescence-activated cell sorting (FAC) tubes according to the number of samples, followed by centrifugation at 4° C. and 2000 rpm for 4 min. After removing the supernatant, each 500 μL of 25 nM aptamer and control (31-08 (40-mer) aptamer) were added to […] of KRPH buffer, followed by pipetting. The tube was covered with foil to block the light, followed by incubation at 4° C. for 30 min. After incubation, centrifugation was performed at 4° C. and 2000 rpm for 4 min, and the supernatant was removed. 2 mL of cold 1×PBS was added, washed, centrifuged at 4° C. and 2000 rpm for 4 min, and the supernatant was removed. This process was repeated three times. […] Cy5 was measured at […]. […]

For data set [1], the system named is GPC3-expressing hepatoma cells. In words: Cell-killing effect (CCK-8) of gemcitabine-bound combi aptamers. It counts as cell-based. The note with it: FIG. 23 and FIG. 24. The procedure: In detail, Huh-7 cells (ATCC, Rockville, MD, USA) were seeded in a 96-well plate at a density of 1×10^4/mL, and cultured using a DMEM (Gibco, Grand Island, NY, USA) medium containing 10% FBS (Gibco, Grand Island, NY, USA) and 1% antibiotics (penicillin/streptomycin) under conditions of 5% CO2 and 37° C. Next day, the aptamer stock (100 μM) was mixed with 5×SB18 buffer to prepare the stock at a concentration of 80 μM, and heated at 95° C. for 5 min, and then cooled at room temperature for 15 min or more. The medium was removed from the cultured cells, and 100 μL of a serum-free medium was added thereto, and cultured under conditions of 37° C. and 5% CO2 for 1 hr. The serum-free medium was removed, and then the cells were washed with 100 μL of 1×PBS. 100 μL of KRPH buffer was added, and cultured under conditions of 37° C. and 5% CO2 for 1 hr. The aptamer was diluted with KRPH buffer to 2-fold of the desired concentration, and added to a 96-well plate at 1× concentration, and cultured under conditions of 37° C. and 5% CO2 for 4 hr. After treatment with the aptamer, the KRPH buffer was removed, and then 100 μL of culture medium was added and cultured under conditions of 37° C. and 5% CO2 for […]. 6 days later, 10 μL of a kit solution of CCK-8 (Cell Counting Kit-8) was added to each well, and then cultured under conditions of 37° C. and 5% CO2 for 3 hr. Cell death levels were examined at […] using a microplate reader.

Data set [2] in a line: Serum stability analysis (urea PAGE). In kind it is in vitro ADME, human. The procedure:
To examine whether 12-12, combi 5 aptamer, combi 4 and combi 5 modified aptamers bound with three or five gemcitabines are stable in the human serum, serum stability was analyzed. In detail, 10 μL of […] was added to 100% human serum, followed by incubation at 37° C. for 0 hr, 1 hr, 3 hr, 6 hr, 12 hr, and 24 hr. After incubation, 5 μL of […] was added, and distilled water was added to a volume of 250 μL. 250 μL of phenol:chloroform:isoamyl alcohol (25:24:1) was added in the equal volume, followed by stirring. Each sample was centrifuged at 16000×g for 10 min. The supernatant was transferred to a new tube, and completely dried. The resultant was diluted with 5× sample buffer and distilled water, and boiled at 95° C. for 5 min, and cooled. The sample was separated by urea PAGE (Polyacrylamide gel Electrophoresis) at 220 V for 25 min, and then stained with SYBR gold and examined using a Gel Doc™ EZ system.

With “Combi 5 G(3) (DNA GNGAANGCGNNGAANNANWYSSSNNCAGNCANCAC; gemcitabines, 2'-OMe, 2'-F, BzdU, 3' idT; Combi 5 G(3); (1)..(1) G is 2-O-Methoxy-DNA.; (2)..(2) n is BzdU.; (3)..(3) G is 2-O-Methoxy-DNA.; (4)..(4) A is 2-Fluorine-DNA.; (5)..(5) A is 2-Fluorine-DNA.; (6)..(6) n is BzdU.; (10)..(10) n is BzdU.; (11)..(11) n is BzdU.; (12)..(12) G is 2-Fluorine-DNA.; (13)..(13) A is 2-Fluorine-DNA.; (14)..(14) A is 2-O-Methoxy-DNA.; (15)..(15) n is BzdU.; (16)..(16) n is BzdU.; (17)..(17) A is 2-O-Methox)”, in the data set with Huh 7 cells, the cell binding ability entry is “excellent cell binding ability”. In data set [1], the “concentration from which a cell-killing effect is shown” value is on record as 100 nM. Moreover, in data set [2] (100% human serum, 37° C., FIG. 28), the “half-life in the human serum” value is recorded as “about 64 hr”. The “improvement of serum half-life compared with 12-12 aptamer” value in data set [2] (human serum) is not below 10 times.
